Among the data in ChEMBL document CHEMBL1132041, “Inhibition of human telomerase by PNA-cationic peptide conjugates” (Bioorg Med Chem Lett, 1999) are IC50 values, retold here.

Telomerase reverse transcriptase, sequence (O14746 whole entry): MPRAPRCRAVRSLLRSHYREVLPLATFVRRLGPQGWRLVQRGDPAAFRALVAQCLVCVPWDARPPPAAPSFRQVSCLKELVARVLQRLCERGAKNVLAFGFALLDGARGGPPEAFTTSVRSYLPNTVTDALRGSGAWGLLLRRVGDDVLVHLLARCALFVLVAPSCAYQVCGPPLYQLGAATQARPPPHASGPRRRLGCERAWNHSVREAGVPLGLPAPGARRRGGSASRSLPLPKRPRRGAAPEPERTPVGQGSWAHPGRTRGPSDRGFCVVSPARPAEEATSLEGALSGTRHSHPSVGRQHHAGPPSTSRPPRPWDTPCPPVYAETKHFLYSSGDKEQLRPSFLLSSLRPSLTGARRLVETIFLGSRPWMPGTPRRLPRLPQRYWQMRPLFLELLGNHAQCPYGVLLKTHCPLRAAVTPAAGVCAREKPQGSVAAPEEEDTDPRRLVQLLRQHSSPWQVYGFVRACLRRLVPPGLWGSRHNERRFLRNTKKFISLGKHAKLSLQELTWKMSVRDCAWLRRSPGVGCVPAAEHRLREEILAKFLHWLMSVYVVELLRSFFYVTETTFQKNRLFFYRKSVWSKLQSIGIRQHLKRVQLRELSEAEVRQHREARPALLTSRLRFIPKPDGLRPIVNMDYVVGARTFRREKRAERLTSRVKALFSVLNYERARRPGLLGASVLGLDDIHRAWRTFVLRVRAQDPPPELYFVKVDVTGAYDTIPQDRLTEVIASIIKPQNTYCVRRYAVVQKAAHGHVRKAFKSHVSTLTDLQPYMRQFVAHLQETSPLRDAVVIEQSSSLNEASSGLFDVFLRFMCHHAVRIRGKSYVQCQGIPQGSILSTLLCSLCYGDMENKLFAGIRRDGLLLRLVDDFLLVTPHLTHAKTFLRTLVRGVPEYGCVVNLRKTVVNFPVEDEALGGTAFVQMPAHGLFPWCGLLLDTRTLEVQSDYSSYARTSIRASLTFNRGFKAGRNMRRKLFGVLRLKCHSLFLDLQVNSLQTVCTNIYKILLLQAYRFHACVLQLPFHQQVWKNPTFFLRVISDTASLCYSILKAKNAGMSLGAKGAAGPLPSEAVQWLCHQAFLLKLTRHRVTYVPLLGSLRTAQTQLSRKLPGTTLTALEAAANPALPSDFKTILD

This assay has as its target Telomerase reverse transcriptase (Homo sapiens, UniProt O14746). The assay is described as follows: Inhibitory activity against human telomerase.
On to `Cc1cn([C@H]2C[C@H](OP(=O)(O)OC[C@H]3O[C@@H](n4cnc5c(N)ncnc54)C[C@@H]3OP(=O)(O)OC[C@H]3O[C@@H](N4C=NC5C(=O)N=C(N)N=C54)C[C@@H]3OP(=O)(O)OC[C@H]3O[C@@H](N4C=NC5C(=O)N=C(N)N=C54)C[C@@H]3OP(=O)(O)OC[C@H]3O[C@@H](N4C=NC5C(=O)N=C(NC(=O)O)N=C54)C[C@@H]3O)[C@@H](COP(=O)(O)ON)O2)c(=O)[nH]c1=O` (some centres undefined), for which the midpoint of inhibition, the IC50, lay at 1160 nM.

As for `Cc1cn(C2CC(OP(=O)(O)OCC3OC(n4cnc5c(N)ncnc54)CC3OP(=O)(O)OCC3OC(n4cnc5c(=O)[nH]c(N)nc54)CC3OP(=O)(O)OCC3OC(n4cnc5c(=O)[nH]c(N)nc54)CC3OP(=O)(O)OCC3OC(n4cnc5c(=O)[nH]c(N)nc54)CC3O)C(COP(=O)(O)C(=O)[C@H](CS)NC(=O)[C@H](CCCCN)NC(=O)[C@H](CCCCN)NC(=O)[C@H](CCCCN)NC(=O)[C@H](CCCCN)NC(=O)[C@H](CCCCN)NC(=O)[C@H](C)N)O2)c(=O)[nH]c1=O` (some centres undefined), the half-maximal inhibitory concentration (IC50) (in general, the concentration that gives 50% inhibition) came to 290 nM.

In turn, `Cc1cn(C2CC(OP(=O)(O)OCC3OC(n4cnc5c(N)ncnc54)CC3OP(=O)(O)OCC3OC(n4cnc5c(=O)[nH]c(N)nc54)CC3OP(=O)(O)OCC3OC(n4cnc5c(=O)[nH]c(N)nc54)CC3OP(=O)(O)OCC3OC(n4cnc5c(=O)[nH]c(N)nc54)CC3O)C(COP(=O)(O)C(=O)[C@H](CS)NC(=O)[C@H](CCCNC(=N)N)NC(=O)[C@H](CCCNC(=N)N)NC(=O)[C@H](CCCNC(=N)N)NC(=O)[C@H](CCCNC(=N)N)NC(=O)[C@H](CCCNC(=N)N)NC(=O)[C@H](C)N)O2)c(=O)[nH]c1=O` (some centres undefined) had an IC50 of 140 nM.

As to `Cc1cn(C2CC(OP(=O)(O)OCC3OC(n4cnc5c(N)ncnc54)CC3OP(=O)(O)OCC3OC(n4cnc5c(N)nc(N)nc54)CC3OP(=O)(O)OCC3OC(n4cnc5c(O)nc(N)nc54)CC3OP(=O)(O)OCC3OC(n4cnc5c(O)nc(N)nc54)CC3O)C(COP(=O)(O)C(=O)[C@H](CS)NC(=O)[C@H](CCCN)NC(=O)[C@H](CCCN)NC(=O)[C@H](CCCN)NC(=O)[C@H](CCCN)NC(=O)[C@H](CCCN)NC(=O)[C@H](C)N)O2)c(=O)[nH]c1=O` (some centres undefined), the IC50 came to 450 nM.
